Values of other authors in patent publication US8673343B2, “Preparation and administration of jojoba product for reducing weight, fat and blood lipid levels and for the prevention and treatment of cancer” (Yiwu Jiangr Bio-Technology HK Corp., priority 2001, dated 2014).

How the values were obtained:
[1] = animal and human studies
[2] = growing rats, long-term administration of lower doses

## CO[C@H]1[C@@H](OC)C[C@@H](O[C@@H]2O[C@H](CO)[C@@H](O)[C@H](O)[C@H]2O)/C(=C\C#N)[C@@H]1O [simmondsin, 2-(cyanomethylene)-3-hydroxy-4,5-dimethoxycyclohexyl beta-D-glucoside]
[1]
  other side effects commonly associated with cancer chemotherapy: no other side effects
[2]
  side effects: without showing any side effects
  sustained food intake inhibition: about 20%
